“Also recorded” adds a separate entry of the source.
Tests used:
COVID-19 patients = experiment: Regadenoson infusion in hospitalized COVID-19 patients: safety and clinical monitoring; type: in vivo, human; conditions: for toxicities / side effects (nausea): during infusion or 30 days of follow-up; for SpO2: before vs 24 hours after RA infusion, pulse oximetry, N=5; for blood pressure: during and post RA infusion
Protocol: (§1) In cohort 1 of this trial, we tested the safety, tolerability, and toxicity of regadenoson in 5 COVID-19 patients (WHO stages 4-5) receiving supplemental oxygen without mechanical ventilation. All subjects received an infused loading dose of 5.0 μg/kg up to a maximum of 400 μg over 30 minutes, followed by a maintenance dose of 1.44 μg/kg/hr for 6 hours. Toxicity of regadenoson was graded by using Common Terminology for Adverse Events Criteria. Vital signs, pulse oximetry, arterial blood gas, laboratory studies, and electrocardiograms were performed on a schedule commensurate with level of care to identify potential risk of the study drug during and 12 hours post infusion. The trial was monitored by an NIH designated DSMB. Peripheral blood samples were collected at 4 timepoints. Along with clinical monitoring, plasma levels of cytokines (14-plex Luminex panel) were measured at various time points. Cytokine data were analyzed by SAS 9.5 PROC MIXED. Activation of peripheral blood mononuclear cells including iNKT cells was analyzed by flow cytometry. Flow cytometry data were analyzed by FCS Express 7 Research edition and GraphPad Prism v9. The plasma levels of regadenoson were determined via liquid chromatography-mass spectrometry.
Consented Covid-19 patients were treated with RA administered intravenously using a pediatric infusion pump at a loading dose rate of 5 μg/kg/hr for 30 min followed by a maintenance dose of 1.44 μg/kg/hr for 6 hours. Subjects' vital signs including oxygen saturation (SpO2), blood pressure, heart rate and respiratory rate were monitored throughout RA infusion.
Blood samples were drawn as a source of peripheral blood mononuclear cells (PBMCs). Cells were frozen in 10% DMSO and thawed for analysis of live cells by flow cytometry. Cytokines, CRP, and D dimer levels were measured in plasma. Blood samples were collected just prior to the start of RA infusion (0 hr), just prior to the end of the loading dose (30 min), 4 hours into the maintenance dose (4.5 hr), and the next day (24 hr).

circulating iNKT cells = experiment: Flow cytometry of CD69 on circulating iNKT cells of COVID-19 patients during regadenoson infusion; type: in vivo, human
[1] = Plasma levels of regadenoson in COVID-19 patients (LC-MS); type: in vivo, human; conditions: loading dose then 1.44 μg/kg/hr for 6 hours
Protocol: as §1

SARS-CoV-2 = experiment: Regadenoson in SARS-CoV-2-infected K18-ACE2 mice: survival; type: in vivo, mouse; conditions: for survival / mortality of infected K18-ACE2 mice: 1.44 μg/kg/hr, 7-day Alzet pump, vs saline
[2] = tested on: lung transplant recipients; experiment: Regadenoson infusion in lung transplant recipients: clinical outcomes, hemodynamics, safety; type: in vivo
Protocol: The rational for dose selection was published in our previous publication (LAU et al., J Heart Lung Transplant, (2020), 39:563-570. We enrolled 4 additional lung transplantation patients that were treated with regadenoson at 1.44 ug/kg/hour for 12 hours. Our previous publication, infusion of regadenoson (1.44 ug/kg/hour for 12 hours) was safe in 10 lung transplantation patients. In the lung transplantation population, the median peak plasma levels of regadenoson infused were 1.68 ng/ml (range 1.2 to 1.9 ng/ml). Based on this preliminary result, we modified our protocol to a high dose infusion at the 2.88 ug/kg/hour for 12 hours in the last three lung transplantation recipients. FDA, NIH/NHLBI designated DSMB and institutional IRB approved our modification. The regadenoson infusion started at the time of skin incision, continued throughout the transplant procedure and into the immediate postoperative period for a total duration of 12 hours. Enrollment of bilateral lung transplant control patients
Primary end-points included dose-limiting toxicities and 30-day mortality. Secondary outcomes included PGD scores evaluated at 24, 48, and 72 hours, ICU length of stay, hospital length of stay, need for post-transplant extracorporeal membrane oxygenation, duration of mechanical ventilation post-operatively, and 12-month survival. Clinical parameters including blood pressure, heart rate, mean arterial pressure, pulmonary arterial pressure, were monitored and collected. Continuous variables are listed as mean and standard deviation, whereas categorical variables are presented as counts.
(§2) Statistical differences of cytokine/chemokines, heart rates and blood pressures between groups were determined by two-way ANOVA followed by Tukey's multiple comparison test (GraphPad Prism 9.0). The PGD scores were analyzed by chi-squared test. The intubation times and hospital LOS, ICU LOS were analyzed by ANOVA of log and Kruskal-Wallis. Data was reported as means±SD. P value equal or less than 0.05 was considered significant.

[3] = tested on: plasma cytokines/chemokines; experiment: Plasma cytokines/chemokines in lung transplant recipients (11-plex); type: in vivo, human
Protocol: Blood was drawn for cytokine/chemokine, damage associated molecular patterns (DAMPs) at the following different timepoints: 1) before infusion (baseline), 2) 15 minutes before reperfusion of the 1st lung, 3) 30 minutes after reperfusion of 1st lung, 4) 30 minutes after reperfusion of 2nd lung, and 5) 6 hours after reperfusion of 1st lung.
The cytokines/chemokines, HMGB1 and sRAGE were determined at The University of Virginia Flow Cytometry Core (RRID: SCR 017829) as previously described (LAU et al., J Heart Lung Transplant, (2020), 39:563-570). The customized 11-plex cytokine panel detects IL-1, IL-2, IL-6, IL-7, IL-8, IL-10, IL-12P40, IL-12P70, IL-17, TNFa, and IFN-γ (Millipore Sigma, Burlington, MA).
as §2

MHS cells = experiment: RAGE shedding in alveolar macrophages (MHS): Western blot of sRAGE, immunofluorescence of RAGE; type: cell-based, mouse; conditions: PMA-treated MHS cells; GM6001 2 nM, regadenoson 100 nM, ATL146e 10 nM
[4] = day 7, Alzet minipump 80 μg/ml in PBS

CNC(=O)c1cnn(-c2nc(N)c3ncn([C@@H]4O[C@H](CO)[C@@H](O)[C@H]4O)c3n2)c1 [Regadenoson]
toxicities / side effects (nausea) (COVID-19 patients; 5 COVID-19 patients): Transient and self-limiting nausea was reported by a single subject
toxicities / side effects (nausea) (COVID-19 patients; 5 COVID-19 patients, listed as RA): 1 case of transient self-limiting nausea, but no other toxicities or reportable side effects
serious adverse events (COVID-19 patients; 5 COVID-19 patients, loading dose 5.0 μg/kg over 30 minutes, maintenance 1.44 μg/kg/hr for 6 hours): No serious adverse events were observed
time to discharge (COVID-19 patients; 5 patients, all recovered): 3 to 9 days
D dimer levels (COVID-19 patients; 24 hours post RA infusion, n=5): significantly decreased
SpO2 after the RA infusion (COVID-19 patients; Case 3, 88% on admission): 97%
SpO2 (COVID-19 patients): significantly less (P<0.05) than 24 hours after treatment; also recorded: statistically significant difference
SpO2 (COVID-19 patients; listed as RA): significantly further elevated
blood pressure (COVID-19 patients; n=5): no significant changes
blood pressure (COVID-19 patients; n=5, listed as RA): remain stable
CRP levels reduced by (COVID-19 patients; in 3 of 4 patients, 24 hours after RA infusion): > 50%
vital signs (COVID-19 patients; throughout the infusion and 12 hours post infusion): stable
subjective symptoms (COVID-19 patients; within 24 hours of RA treatment): subjective improvement in all subjects
expression of activation marker CD69 on circulating iNKT cells (circulating iNKT cells; 4 hours into the maintenance dose): significantly reduced
expression of activation marker CD69 on circulating iNKT cells (circulating iNKT cells; after the 30 min loading dose): significantly reduced
reduction of the fraction of circulating iNKT cells that are CD69+ (circulating iNKT cells; within 30 minutes): 50%
median peak plasma levels of regadenoson [1]: 14.24 ng/mL
peak plasma levels of regadenoson, range [1]: 3.64 to 78.64 ng/mL
treated mice died (SARS-CoV-2; 1.44 μg/kg/hr subcutaneous infusion, 7-day pump, mostly on day 7): 50%
survival / mortality of infected K18-ACE2 mice (SARS-CoV-2): increases survival
survival / mortality of infected K18-ACE2 mice (SARS-CoV-2; listed as RA): decreases mortality
PGD scores at 24 hours post transplantation ([2]; 1.44 ug/kg/h vs control patients, p=0.024): significantly improved
drug related serious adverse events or dose limiting toxicities ([2]; 14 low dose-treated (1.44 ug/kg/h) and 3 high dose-treated (2.88 ug/kg/h) recipients): no drug related serious adverse events or dose limiting toxicities were observed
PGD scores at 24 hours, 48 and 72 hours ([2]; both 1.44 and 2.88 ug/kg/h groups vs control patients): also improved when compared with control patients but did not reach significance
blood pressure, heart rate, mean arterial pressure and pulmonary arterial pressure ([2]; during regadenoson infusion for 12 hours, P>0.05): did not significantly alter
seizure ([2]; one subject, may not directly relate to regadenoson infusion): A seizure was observed at the 36 hours post regadenoson infusion in one of the subjects
hospital length of stay (LOS) and ICU LOS ([2]; vs control patients): reduced, but not significantly altered
intubation time ([2]; vs control patients): trended to decrease
transplant-induced elevation of TNF-α ([3]; 30 minutes after reperfusion of 1st lung, low dose p=0.071, high dose p=0.154): trended toward reducing
transplantation-induced plasma levels of IL-6 ([3]; 30 minutes after reperfusion of 2nd lung, low dose p=0.041, high dose p=0.007 vs control): significantly inhibited
plasma IL-10 ([3]; low dose infusion, p=0.078): trended toward increasing
plasma levels of IL-8 ([3]; low dose, 30 minutes after reperfusion of 2nd lung, p=0.032): significantly reduced
PMA-induced shedding of cell membrane-anchored RAGE (MHS cells): suppressed the shedding of RAGE; also recorded: partially inhibited
mean +/-SEM plasma level for Regadenoson [4]: 7.6 ± 1.3 ng/mL

Reference: patent US12115182B2, “Adenosine A2A agonists for the treatment of cytokine storm syndrome” (priority 2021, dated 2024)
